Reference: patent US9259401B2 (priority 2011, dated 2016)
“And” between values parts separate entries of the source, which are not always exact repeats. Identical values can stand only once. Like-named read-outs stand apart in the source and are kept apart here.

Assay: Comparative bioavailability study, curcumin in plasma by HPLC
Type: in vivo, human
Conditions: for Mean plasma concentration: listed as Curcumin Powder 95%
Procedure: The bioavailability study was conducted at Amala Cancer Institute, Thrissur, Kerala on a request from the applicant. Twelve healthy subjects were recruited for the purpose of the study. […] The study design chosen was a balanced, open label, two-treatment, two-period, single dose, bioavailability study.
12 Subject were recruited for the study and were asked to avoid consumption of food containing rich turmeric powder or extract for 24 hours preceding each period. […] The following supplements were used for the purpose of the study:
Each of the supplements were administered with 240 ml water in each period.
The study design is open label, two-treatment, two-period, single dose, bioavailability study. […] Subjects were asked to avoid consumption of food containing rich turmeric powder or extract for 24 hours preceding each period. […] There was a washout period of at least 2 weeks between the doses.
Blood was drawn from each subject just prior to dosing and at 1, 2, 4, 6, 8, and 24 hours post-dose. The total blood loss for each subject was approximately 70 ml and there were totally 14 blood samples of 5 ml each time point throughout the study.
The primary efficacy variables were measured in this study were Cmax, AUCO-t and AUCO-∞ and the secondary efficacy variable were as follows Tmax, T½ and Kel. The statistical evaluation was done by Winnonlin Software 5.0.1 version. […] Tmax and T½ were also be recorded and compared for the two products.
Preparation of Sample (Spiked with Standard Solution E): The frozen plasma samples were allowed to attain the room temperature. 1000 μl of the plasma sample was pipetted out and spiked with 100 μl of spiking standard solution E. This solution was vortex for 1 minute and 3.0 ml ethyl acetate (HPLC Grade) was added to the above solutions. The solution was vortex again for 1 minute with the aid of cyclomixer and allowed to settle down at room temperature.
1.5 ml of the upper ethyl acetate layer was pipetted out and evaporated to dryness using vacuum. The dried sample was dissolved in 600 μl of methanol (HPLC Grade) using vortex mixer. This solution was filtered by 0.2 micron membrane filter paper. 100 μl of these filtered solution was injected in HPLC (Waters Alliance System with 2996 PDA detector in isocratic mode). The column used was LiChrospher 100 RP-18 (250×4.6 mm 5 μM particle size) with methanol as the mobile phase and the detection wavelength was 420 nm. To identify and quantized curcuminoids in plasma the chromatographic peaks were compared with standard solution.

[1] = individual subjects, 1 gm curcuminoids oral, listed as Curcumin Extract Powder (min 95% Curcuminoids)

## COc1cc(C=CC(=O)CC(=O)C=Cc2ccc(O)c(OC)c2)ccc1O [Curcumin, 1,7-bis(4-hydroxy-3-methoxyphenyl)-1,6-heptadien-3,5-dione]
1 gm curcuminoids oral
  AUCINF, Max: 87.74 ng·h/mL
  AUCINF, Min: 76.09 ng·h/mL
  AUCT, Max: 198.27 ng·h/mL
  AUCT, Min: 31.24 ng·h/mL
  Cmax, Max: 36.11 ng/mL
  Cmax, Min: 2.48 ng/mL
  Thalf, Geometric Mean: 7.066 h
  Thalf, Max: 11.39 h
  Thalf, Mean: 7.516 h
  Thalf, Median: 5.95 h
  Thalf, Min: 5.21 h
  Tmax, Max: 24.00 h
  Tmax, Min: 1.00 h
1 gm curcuminoids oral, listed as Curcumin Extract Powder (min 95% Curcuminoids)
  AUCINF, Mean (mean AUC): 80.433 ng·h/mL
human, plasma, po, 1 gm, 1 gm curcuminoids oral, read-out: AUCINF, Geometric Mean
  AUC(0-inf): 80.3 ng·h/mL
human, plasma, po, 1 gm, 1 gm curcuminoids oral, read-out: AUCINF, Mean (mean AUC)
  AUC(0-inf): 80.4 ng·h/mL
human, plasma, po, 1 gm, 1 gm curcuminoids oral, read-out: AUCINF, Median
  AUC(0-inf): 77.5 ng·h/mL
human, plasma, po, 1 gm, 1 gm curcuminoids oral, read-out: AUCT, Geometric Mean
  AUC(0-t): 81 ng·h/mL
human, plasma, po, 1 gm, 1 gm curcuminoids oral, read-out: AUCT, Mean
  AUC(0-t): 98.8 ng·h/mL
human, plasma, po, 1 gm, 1 gm curcuminoids oral, read-out: AUCT, Median
  AUC(0-t): 77.8 ng·h/mL
human, plasma, po, 1 gm, 1 gm curcuminoids oral, read-out: Cmax, Geometric Mean
  Cmax: 10.5 ng/mL
human, plasma, po, 1 gm, 1 gm curcuminoids oral, read-out: Cmax, Mean
  Cmax: 13.3 ng/mL
human, plasma, po, 1 gm, 1 gm curcuminoids oral, read-out: Cmax, Median
  Cmax: 10.3 ng/mL
human, plasma, po, 1 gm, 1 gm curcuminoids oral, read-out: Tmax, Geometric Mean
  Tmax: 4.06 h
human, plasma, po, 1 gm, 1 gm curcuminoids oral, read-out: Tmax, Mean
  Tmax: 8.25 h
human, plasma, po, 1 gm, 1 gm curcuminoids oral, read-out: Tmax, Median
  Tmax: 3 h
human, plasma, po, 1 gm, individual subjects, 1 gm curcuminoids oral, read-out: AUCINF
  AUC(0-inf): 76.1 ng·h/mL
human, plasma, po, 1 gm, time 0 hr (prior to dosing), 1 gm curcuminoids oral, read-out: Mean plasma concentration
  concentration at 0 hr: 0 ng/mL
human, plasma, po, 1 gm, time 0.00 hr (prior to dosing), individual subjects, single oral dose equivalent to 1 gm curcuminoids, read-out: Individual plasma concentration
  concentration at 0 hr: 0 ng/mL
human, plasma, po, 1 gm, time 0 hr, 1 gm curcuminoids oral, read-out: Geometric Mean plasma concentration
  concentration at 0 hr: 0 ng/mL
human, plasma, po, 1 gm, time 0 hr, 1 gm curcuminoids oral, read-out: Max plasma concentration
  concentration at 0 hr: 0 ng/mL
human, plasma, po, 1 gm, time 0 hr, 1 gm curcuminoids oral, read-out: Median plasma concentration
  concentration at 0 hr: 0 ng/mL
human, plasma, po, 1 gm, time 0 hr, 1 gm curcuminoids oral, read-out: Min plasma concentration
  concentration at 0 hr: 0 ng/mL
human, plasma, po, 1 gm, time 1 hr, 1 gm curcuminoids oral, read-out: Geometric Mean plasma concentration
  concentration at 1 hr: 1.58 ng/mL
human, plasma, po, 1 gm, time 1 hr, 1 gm curcuminoids oral, read-out: Max plasma concentration
  concentration at 1 hr: 20.6 ng/mL
human, plasma, po, 1 gm, time 1 hr, 1 gm curcuminoids oral, read-out: Mean plasma concentration
  concentration at 1 hr: 5.46 ng/mL
human, plasma, po, 1 gm, time 1 hr, 1 gm curcuminoids oral, read-out: Median plasma concentration
  concentration at 1 hr: 1.66 ng/mL
human, plasma, po, 1 gm, time 1 hr, 1 gm curcuminoids oral, read-out: Min plasma concentration
  concentration at 1 hr: 0.05 ng/mL
human, plasma, po, 1 gm, time 2 hr, 1 gm curcuminoids oral, read-out: Geometric Mean plasma concentration
  concentration at 2 hr: 13.5 ng/mL
human, plasma, po, 1 gm, time 2 hr, 1 gm curcuminoids oral, read-out: Max plasma concentration
  concentration at 2 hr: 19.8 ng/mL
human, plasma, po, 1 gm, time 2 hr, 1 gm curcuminoids oral, read-out: Mean plasma concentration
  concentration at 2 hr: 14.4 ng/mL
human, plasma, po, 1 gm, time 2 hr, 1 gm curcuminoids oral, read-out: Median plasma concentration
  concentration at 2 hr: 14.9 ng/mL
human, plasma, po, 1 gm, time 2 hr, 1 gm curcuminoids oral, read-out: Min plasma concentration
  concentration at 2 hr: 8.39 ng/mL
human, plasma, po, 1 gm, time 4 hr, 1 gm curcuminoids oral, read-out: Geometric Mean plasma concentration
  concentration at 4 hr: 4.89 ng/mL
human, plasma, po, 1 gm, time 4 hr, 1 gm curcuminoids oral, read-out: Max plasma concentration
  concentration at 4 hr: 15.6 ng/mL
human, plasma, po, 1 gm, time 4 hr, 1 gm curcuminoids oral, read-out: Mean plasma concentration
  concentration at 4 hr: 7.07 ng/mL
human, plasma, po, 1 gm, time 4 hr, 1 gm curcuminoids oral, read-out: Median plasma concentration
  concentration at 4 hr: 7.09 ng/mL
human, plasma, po, 1 gm, time 4 hr, 1 gm curcuminoids oral, read-out: Min plasma concentration
  concentration at 4 hr: 0.75 ng/mL
human, plasma, po, 1 gm, time 6 hr, 1 gm curcuminoids oral, read-out: Geometric Mean plasma concentration
  concentration at 6 hr: 3.03 ng/mL
human, plasma, po, 1 gm, time 6 hr, 1 gm curcuminoids oral, read-out: Max plasma concentration
  concentration at 6 hr: 4.87 ng/mL
human, plasma, po, 1 gm, time 6 hr, 1 gm curcuminoids oral, read-out: Mean plasma concentration
  concentration at 6 hr: 3.23 ng/mL
human, plasma, po, 1 gm, time 6 hr, 1 gm curcuminoids oral, read-out: Median plasma concentration
  concentration at 6 hr: 2.77 ng/mL
human, plasma, po, 1 gm, time 6 hr, 1 gm curcuminoids oral, read-out: Min plasma concentration
  concentration at 6 hr: 2.05 ng/mL
human, plasma, po, 1 gm, time 8 hr, 1 gm curcuminoids oral, read-out: Geometric Mean plasma concentration
  concentration at 8 hr: 6.56 ng/mL
human, plasma, po, 1 gm, time 8 hr, 1 gm curcuminoids oral, read-out: Max plasma concentration
  concentration at 8 hr: 36.1 ng/mL
human, plasma, po, 1 gm, time 8 hr, 1 gm curcuminoids oral, read-out: Mean plasma concentration
  concentration at 8 hr: 18.6 ng/mL
human, plasma, po, 1 gm, time 8 hr, 1 gm curcuminoids oral, read-out: Median plasma concentration
  concentration at 8 hr: 18.6 ng/mL
human, plasma, po, 1 gm, time 8 hr, 1 gm curcuminoids oral, read-out: Min plasma concentration
  concentration at 8 hr: 1.19 ng/mL
human, plasma, po, 1 gm, time 24 hr, 1 gm curcuminoids oral, read-out: Geometric Mean plasma concentration
  concentration at 24 hr: 2.23 ng/mL
human, plasma, po, 1 gm, time 24 hr, 1 gm curcuminoids oral, read-out: Max plasma concentration
  concentration at 24 hr: 11.5 ng/mL
human, plasma, po, 1 gm, time 24 hr, 1 gm curcuminoids oral, read-out: Mean plasma concentration
  concentration at 24 hr: 4.27 ng/mL
human, plasma, po, 1 gm, time 24 hr, 1 gm curcuminoids oral, read-out: Median plasma concentration
  concentration at 24 hr: 1.93 ng/mL
human, plasma, po, 1 gm, time 24 hr, 1 gm curcuminoids oral, read-out: Min plasma concentration
  concentration at 24 hr: 0.53 ng/mL
[1]
  AUCINF: 87.74 ng·h/mL and 77.46 ng·h/mL
  AUCT: 38.31 ng·h/mL and 53.25 ng·h/mL and 31.24 ng·h/mL and 82.17 ng·h/mL and 175.60 ng·h/mL and 137.89 ng·h/mL and 198.27 ng·h/mL and 73.46 ng·h/mL
  Cmax: 2.48 ng/mL and 7.99 ng/mL and 15.62 ng/mL and 8.39 ng/mL and 9.09 ng/mL and 11.49 ng/mL and 36.11 ng/mL and 14.94 ng/mL
  Thalf: 11.39 h and 5.95 h and 5.21 h
  Tmax: 1.00 h and 4.00 h and 2.00 h and 24.00 h and 8.00 h
Time 0 hr (prior to dosing), 1 gm curcuminoids oral
  Mean plasma concentration: 0.0000 ng/mL
Time 0.00 hr (prior to dosing), individual subjects, single oral dose equivalent to 1 gm curcuminoids
  Individual plasma concentration: 0.00 ng/mL
Time 1 hr, 1 gm curcuminoids oral
  Mean plasma concentration: 5.4638 ng/mL
Time 1.00 hr, individual subjects, single oral dose equivalent to 1 gm curcuminoids, listed as Curcumin Extract Powder 95%
  Individual plasma concentration: 2.48 ng/mL and 7.99 ng/mL and 0.84 ng/mL and 0.05 ng/mL and 20.58 ng/mL and 0.85 ng/mL
Time 2 hr, 1 gm curcuminoids oral
  Mean plasma concentration: 14.3842 ng/mL
Time 2.00 hr, individual subjects, single oral dose equivalent to 1 gm curcuminoids, listed as Curcumin Extract Powder 95%
  Individual plasma concentration: 8.39 ng/mL and 19.82 ng/mL and 14.94 ng/mL
Time 4 hr, 1 gm curcuminoids oral
  Mean plasma concentration: 7.0711 ng/mL
Time 4.00 hr, individual subjects, single oral dose equivalent to 1 gm curcuminoids, listed as Curcumin Extract Powder 95%
  Individual plasma concentration: 0.75 ng/mL and 4.53 ng/mL and 15.62 ng/mL and 7.09 ng/mL and 7.36 ng/mL
Time 6 hr, 1 gm curcuminoids oral
  Mean plasma concentration: 3.2316 ng/mL
Time 6.00 hr, individual subjects, single oral dose equivalent to 1 gm curcuminoids, listed as Curcumin Extract Powder 95%
  Individual plasma concentration: 2.05 ng/mL and 4.87 ng/mL and 2.77 ng/mL
Time 8 hr, 1 gm curcuminoids oral
  Mean plasma concentration: 18.6496 ng/mL
Time 8.00 hr, individual subjects, single oral dose equivalent to 1 gm curcuminoids, listed as Curcumin Extract Powder 95%
  Individual plasma concentration: 1.19 ng/mL and 36.11 ng/mL
Time 24 hr, 1 gm curcuminoids oral
  Mean plasma concentration: 4.2698 ng/mL
Time 24.00 hr, individual subjects, single oral dose equivalent to 1 gm curcuminoids, listed as Curcumin Extract Powder 95%
  Individual plasma concentration: 2.47 ng/mL and 1.39 ng/mL and 0.65 ng/mL and 9.09 ng/mL and 11.49 ng/mL and 0.53 ng/mL
